# Results published in patent US20180021467A1, “METHOD OF BLOCKING PERCEPTION OF MALODOR” (Monell Chemical Senses Center, priority 2015, published 2018).
# Tests used:
# [1] = tested on: human perception of TMA odor ("fishy"); test: Human perceptual ratings of fishiness of TMA with antagonist or control odor (air-dilution olfactometer); assay type: in vivo; details: human subjects, TMA 3 mM, 1 mM, 0.33 mM, odors intensity-balanced to 1 mM TMA
# Experimental: We evaluated the efficacy of the in vitro antagonists on human perception. We asked 10 (FIG. 5A) or 29 (FIG. 5B) subjects to rate how “fishy” and how “pleasant” an odor was. The odors were delivered to the subject using an air-dilution olfactometer (Lundström, J. N., et al., 2010 International Journal of Psychophysiology, 78(2), 179-189; doi:10.1016/j.ijpsycho.2010.07.007) and each trial consisted of one concentration of trimethylamine (either 3 mM, 1 mM, 0.33 mM, or a water blank) combined with either an antagonist or a solvent blank. Subjects used a general labeled magnitude scale to rate how “fishy” the odor smelled and a scale from −10 to +10 to rate the pleasantness.
# The antagonists and control odors were intensity-balanced to match the 1 mM concentration of TMA. Trans-2-nonen-1-ol was diluted in Diethyl phthalate (DEP); TMA was diluted in water with NaOH added; Linalool was diluted in DEP. In all trials subjects received air from jars containing water and DEP so that solvent presence could not be used as a cue to the presence of the test odor.
# [2] = tested on: human perception of TMA odor (mixture suppression); test: Split-nostril experiment, physical vs dichorhinic mixtures with TMA; assay type: in vivo; details: human subjects, TMA with probe odorant
# Source text: Mixture suppression has both a central and peripheral component (Laing, D., & Willcox, M. (1987). An investigation of the mechanisms of odor suppression using physical and dichorhinic mixtures. Behavioural Brain Research, 26(2-3), 79-87. http://doi.org/10.1016/0166-4328(87)90157-4). […] To test this we carried out split-nostril experiments using stimuli in glass jars. We compared TMA-alone, TMA mixed with the probe odorant in the same nostril (physical mixture), and TMA mixed with the probe odorant in different nostrils (dichorhinic mixture) (FIG. 7). […] Subjects were instructed to make intensity judgements during inhalation to avoid retronasal contamination across nostrils. This allowed us to separate central and peripheral components of the mixture suppression.
# [3] = molecular target: T1, TAAR5 (Homo sapiens, UniProt O14804); test: Antagonist screen of odor library on TAAR5 with agonist TMA (Dual-Glo luciferase assay, Hana3A cells); assay type: cell-based; design: TAAR open reading frames were amplified from pooled human genomic DNA using Phusion polymerase and subcloned into a pCI expression vector; Rho tag (first 20 residues of human rhodopsin); expressed in transfected cells; host or cells: Hana3A cells; details: inhibition of TMA/TAAR5 response; test odor at 30 μM; TMA at EC80; read-out: Percent Inhibition
# T1 sequence (O14804 1-337): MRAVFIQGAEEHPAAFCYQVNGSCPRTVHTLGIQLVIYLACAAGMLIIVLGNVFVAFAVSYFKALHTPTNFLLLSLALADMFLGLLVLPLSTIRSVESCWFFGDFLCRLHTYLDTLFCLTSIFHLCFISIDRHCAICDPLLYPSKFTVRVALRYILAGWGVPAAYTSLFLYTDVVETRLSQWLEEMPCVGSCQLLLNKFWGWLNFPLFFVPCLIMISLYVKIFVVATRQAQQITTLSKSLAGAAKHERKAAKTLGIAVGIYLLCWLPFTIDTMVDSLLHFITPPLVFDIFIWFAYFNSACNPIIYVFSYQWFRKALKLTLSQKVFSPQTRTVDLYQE
# Experimental: We screened a TAAR of interest, TAAR5, with the agonist TMA added at the EC80 concentration, against a proprietary small-molecule library to identify antagonists. TAAR open reading frames were amplified from pooled human genomic DNA using Phusion polymerase and subcloned into a pCI expression vector (Promega) containing the first 20 residues of human rhodopsin (Rho tag). […] Hana3A cells were transfected with 5 ng/well of RTP1S, 5 ng/well of pRL-SV40, 10 ng/well of CRE-luciferase, 2.5 ng/well of M3, and 5 ng/well of odorant receptor. 1M odorant stocks were diluted in DMSO. 24 hours following transfection, transfection media was removed and replaced with the appropriate concentration of odor diluted from the 1M stocks in CD293 (Gibco). Four hours following odor stimulation luminescence was measured using a Synergy 2 plate reader (Biotek). All luminescence values were divided by the Renilla Luciferase activity to control for transfection efficiency in a given well.
# We completed an antagonist screen of a proprietary library of odors, including the 52 odorous compounds identified in FIG. 4 at a concentration of 30 μM.
# [4] = molecular target: T1, TAAR5; test: Dose responses on TAAR5 in luciferase assay (antagonist dose-dependent inhibition with TMA at EC80; TMA dose response with antagonist at IC10, IC30, IC50); assay type: cell-based; design: TAAR open reading frames were amplified from pooled human genomic DNA using Phusion polymerase and subcloned into a pCI expression vector; Rho tag (first 20 residues of human rhodopsin); expressed in transfected cells; host or cells: Hana3A cells; details: TAAR5 luciferase
# Source text: We screened a TAAR of interest, TAAR5, with the agonist TMA added at the EC80 concentration, against a proprietary small-molecule library to identify antagonists. TAAR open reading frames were amplified from pooled human genomic DNA using Phusion polymerase and subcloned into a pCI expression vector (Promega) containing the first 20 residues of human rhodopsin (Rho tag). The sequences of the cloned receptors were verified by sequencing (3730xl Sequencer, ABI Biosystems). We used the Dual-Glo™ Luciferase Assay System (Promega) to measure receptor responses as previously described in Trimmer, C. et al 2014 High-throughput Analysis of Mammalian Olfactory Receptors: Measurement of Receptor Activation via Luciferase Activity. Journal of Visualized Experiments, (88). doi:10.3791/51640. Hana3A cells were transfected with 5 ng/well of RTP1S, 5 ng/well of pRL-SV40, 10 ng/well of CRE-luciferase, 2.5 ng/well of M3, and 5 ng/well of odorant receptor. 1M odorant stocks were diluted in DMSO. 24 hours following transfection, transfection media was removed and replaced with the appropriate concentration of odor diluted from the 1M stocks in CD293 (Gibco). Four hours following odor stimulation luminescence was measured using a Synergy 2 plate reader (Biotek). All luminescence values were divided by the Renilla Luciferase activity to control for transfection efficiency in a given well.
# In a secondary experiment, we ran dose dependent inhibition responses for the top twelve antagonists, i.e., the top 12 compounds identified in FIG. 4. TMA was kept at the EC80 (500 μM) and the twelve antagonists were diluted in a dose response with the highest concentration at 1000 μM. The top five candidate compounds, i.e., phenethyl benzoate, trans-2-nonen-1-ol, isoeugenyl phenlacetate, tributyl-2-acetylcitrate, bis(2-methyl-3-furyl)disulfide, were rescreened using an antagonist dose response at 2500 μM. We determined the IC80 values for those five antagonists. Using those IC80 values, we completed a 3-fold dilution dose response of TMA, starting at 3000 μM, in the presence of our five candidate antagonists. […] It was difficult to determine if the five antagonists were competitive or non-competitive inhibitors using the very high IC80 concentrations of the antagonists.
# In another experiment, we evaluated dose responses of TMA in the presence of the antagonist at their IC10, IC30 and IC50 concentrations.
# [5] = molecular target: T1, TAAR5; details: cited from earlier work
inhibition at 30 µM [3],"IC50 ([4]; vs TMA, highest of the three concentrations in FIG. 2, read-out: IC50 concentration of antagonist)","IC10 concentration of antagonist ([4]; vs TMA, lowest of the three concentrations in FIG. 2)","IC30 concentration of antagonist ([4]; vs TMA, middle of the three concentrations in FIG. 2)",Structure (SMILES),effect on perceived fishy rating of TMA ([1]; listed as Trans-2-nonen-1-ol),effect on perceived fishy rating of TMA ([1]; listed as trans-2-nonen-1-ol),peripheral component of mixture suppression [2],activation of human TAAR5 [5],EC80 of agonist on TAAR5 [4]
89.3%,703 µM,100 µM,316.22 µM,CCCCCC/C=C/CO [Trans-2-Nonen-1-ol],significantly decreased the perceived fishy rating,decreases fishy intensity,larger peripheral component of mixture suppression than the control odorant linalool,–,–
–,–,–,–,"CN(C)C [TMA, trimethylamine, reference compound]",–,–,–,activated in a concentration-dependent manner,500 µM
